# Assay results as given in US8226983B2, “Method for producing pulverized organic compound particle” (Activus Pharma Co., Ltd., priority 2007, dated 2012).
# Key:
# [1] = Average particle diameter by BET type specific surface area analyzer; format: physicochemical; conditions: for average particle diameter of the resulting particles: after pulverization; for average particle diameter of the resulting particles / average particle diameter of the starting organic compound: BET method; for average particle diameter of the starting organic compound: before pulverization; for Ave. Diameter after pulverization (nm): as Example 3
# Text: The average particle diameter of the particles can be measured by conventionally used particle size measurement techniques such as a microscopic method, a screening method, a Coulter counter method, a sedimentation method, an air permeation method, and a gas adsorption method, but the average particle diameter according to the present invention means the average particle diameter measured according to a gas adsorption method. The method is based on the principle that when molecules or ions having a known size are adsorbed to the surface of the particles, the particles adsorb the molecules or ion according to the specific surface area. Thus, the method is a method of determining the specific surface area using an adsorption isotherm equation or an isotherm, and calculating the average particle diameter, and the method is excellent as a method for measuring the average particle diameter of finely pulverized particles. Next, the present invention will be described in more detail by way of Examples, but the present invention is not intended to be limited to the following Examples. The measurement of the average particle size was all carried out using a BET type specific surface area analyzer (Macsorb type MH-1201, manufactured by Mountech Co., Ltd.).
# [2] = Crystallinity by X-ray diffraction; format: physicochemical; conditions: D8 Discover X-ray diffraction apparatus
# Text: Each crystallinity of the quinolinone derivative before being finely pulverized, the quinolinone derivative obtained in Example 8 and the quinolinone derivative obtained in Comparative Example 8, was examined using an X-ray diffraction measurement apparatus (D8 Discover, manufactured by Bruker AXS, Inc.
structure (smiles),measurement,setting,value
"COc1ccc2c(c1)c(CC(=O)O)c(C)n2C(=O)c1ccc(Cl)cc1 [Comparative Example 1, indomethacin]",average particle diameter of the resulting particles,[1],"1,060 nm"
"CC1=C(/C=C/C(C)=C/C=C/C(C)=C/C=C/C=C(C)/C=C/C=C(C)/C=C/C2=C(C)CCCC2(C)C)C(C)(C)CCC1 [Comparative Example 3, β-carotene]",average particle diameter of the resulting particles,[1],570 nm
"CCC(=O)OCC(=O)[C@@]1(OC(=O)CC)[C@@H](C)C[C@H]2[C@@H]3CCC4=CC(=O)C=C[C@]4(C)[C@@]3(Cl)[C@@H](O)C[C@@]21C [Comparative Example 5, beclometasone dipropionate]",average particle diameter of the resulting particles,[1],730 nm
"CCCCCCCCOc1c(O)c2ccc(NC(=O)C=Cc3cc(OC)c(O)c(OC)c3)cc2n(C)c1=O [Comparative Example 6, 7-(3,5-dimethoxy-4-hydroxycinnamoylamino)-3-octyloxy-4-hydroxy-1-methyl-2(1H)-quinolinone]",average particle diameter of the resulting particles,[1],620 nm
"CCCCCCCCOc1c(O)c2ccc(NC(=O)C=Cc3cc(OC)c(O)c(OC)c3)cc2n(C)c1=O [Comparative Example 7, 7-(3,5-dimethoxy-4-hydroxycinnamoylamino)-3-octyloxy-4-hydroxy-1-methyl-2(1H)-quinolinone]",average particle diameter of the resulting particles,[1],128 nm
"Clc1ccc(COC(Cn2ccnc2)c2ccc(Cl)cc2Cl)c(Cl)c1 (stereo not drawn) [Comparative Example 8, miconazole]",average particle diameter of the resulting particles,[1],651 nm
same,crystallinity (X-ray diffraction),[2],amorphous
"CCC(=O)O[C@]1(C(=O)SCF)[C@H](C)C[C@H]2[C@@H]3C[C@H](F)C4=CC(=O)C=C[C@]4(C)[C@@]3(F)[C@@H](O)C[C@@]21C [Comparative Example 10, fluticasone propionate]",average particle diameter of the resulting particles,[1],438 nm
"COc1cc(C(=O)NS(=O)(=O)c2ccccc2C)ccc1Cc1cn(C)c2ccc(NC(=O)OC3CCCC3)cc12 [Comparative Example 13, zafirlukast]",average particle diameter of the resulting particles,[1],558 nm
"CC(C)Cc1ccc(C(C)C(=O)O)cc1 (stereo not drawn) [Comparative Example 14, ibuprofen]",average particle diameter of the resulting particles,[1],"1,900 nm"
"CCCCCCCCOc1c(O)c2ccc(NC(=O)C=Cc3cc(OC)c(O)c(OC)c3)cc2n(C)c1=O [Example 8, 7-(3,5-dimethoxy-4-hydroxycinnamoylamino)-3-octyloxy-4-hydroxy-1-methyl-2(1H)-quinolinone]",crystallinity (X-ray diffraction),[2],crystalline structures
"CCC(=O)O[C@]1(C(=O)SCF)[C@H](C)C[C@H]2[C@@H]3C[C@H](F)C4=CC(=O)C=C[C@]4(C)[C@@]3(F)[C@@H](O)C[C@@]21C [Example 17, fluticasone propionate]",average particle diameter of the resulting particles,[1],114 nm
"CCC(=O)O[C@]1(C(=O)SCF)[C@H](C)C[C@H]2[C@@H]3C[C@H](F)C4=CC(=O)C=C[C@]4(C)[C@@]3(F)[C@@H](O)C[C@@]21C [Example 18, fluticasone propionate]",average particle diameter of the resulting particles,[1],108 nm
"CCC(=O)O[C@]1(C(=O)SCF)[C@H](C)C[C@H]2[C@@H]3C[C@H](F)C4=CC(=O)C=C[C@]4(C)[C@@]3(F)[C@@H](O)C[C@@]21C [Example 19, fluticasone propionate]",average particle diameter of the resulting particles,[1],103 nm
"CCC(=O)O[C@]1(C(=O)SCF)[C@H](C)C[C@H]2[C@@H]3C[C@H](F)C4=CC(=O)C=C[C@]4(C)[C@@]3(F)[C@@H](O)C[C@@]21C [Example 20, fluticasone propionate]",average particle diameter of the resulting particles,[1],94 nm
"CCC(=O)O[C@]1(C(=O)SCF)[C@H](C)C[C@H]2[C@@H]3C[C@H](F)C4=CC(=O)C=C[C@]4(C)[C@@]3(F)[C@@H](O)C[C@@]21C [Example 21, fluticasone propionate]",average particle diameter of the resulting particles,[1],92 nm
"CCC(=O)O[C@]1(C(=O)SCF)[C@H](C)C[C@H]2[C@@H]3C[C@H](F)C4=CC(=O)C=C[C@]4(C)[C@@]3(F)[C@@H](O)C[C@@]21C [Example 22, fluticasone propionate]",average particle diameter of the resulting particles,[1],70 nm
"CCC(=O)O[C@]1(C(=O)SCF)[C@H](C)C[C@H]2[C@@H]3C[C@H](F)C4=CC(=O)C=C[C@]4(C)[C@@]3(F)[C@@H](O)C[C@@]21C [Example 23, fluticasone propionate]",average particle diameter of the resulting particles,[1],109 nm
CCC(=O)OCC(=O)[C@@]1(OC(=O)CC)[C@@H](C)C[C@H]2[C@@H]3CCC4=CC(=O)C=C[C@]4(C)[C@@]3(Cl)[C@@H](O)C[C@@]21C [beclometasone dipropionate],average particle diameter of the starting organic compound,[1],"1,820 nm"
CC(=O)OCC(=O)[C@@]1(O)CC[C@H]2[C@@H]3CCC4=CC(=O)CC[C@]4(C)[C@H]3C(=O)C[C@@]21C [cortisone acetate],average particle diameter of the starting organic compound,[1],"1,060 nm"
same,Ave. Diameter before pulverization (nm),"[1]; cortisone acetate, Example 24","1,060 nm"
same,Ave. Diameter after pulverization (nm),"[1]; cortisone acetate, polyol Diethylene glycol",480 nm
same,Ave. Diameter after pulverization (nm),"[1]; cortisone acetate, polyol Glycerin",260 nm
same,Ave. Diameter after pulverization (nm),"[1]; cortisone acetate, polyol Polyethylene glycol",590 nm
same,Ave. Diameter after pulverization (nm),"[1]; cortisone acetate, polyol Propylene glycol",450 nm
CCC(=O)O[C@]1(C(=O)SCF)[C@H](C)C[C@H]2[C@@H]3C[C@H](F)C4=CC(=O)C=C[C@]4(C)[C@@]3(F)[C@@H](O)C[C@@]21C [fluticasone propionate],average particle diameter of the starting organic compound,[1],"7,850 nm"
CC(C)Cc1ccc(C(C)C(=O)O)cc1 (stereo not drawn) [ibuprofen],average particle diameter of the starting organic compound,[1],"18,050 nm"
COc1ccc2c(c1)c(CC(=O)O)c(C)n2C(=O)c1ccc(Cl)cc1 [indomethacin],average particle diameter of the starting organic compound,[1],"3,980 nm"
Clc1ccc(COC(Cn2ccnc2)c2ccc(Cl)cc2Cl)c(Cl)c1 (stereo not drawn) [miconazole],average particle diameter of the starting organic compound,[1],"10,900 nm"
"CCCCCCCCOc1c(O)c2ccc(NC(=O)C=Cc3cc(OC)c(O)c(OC)c3)cc2n(C)c1=O [quinolinone derivative, 7-(3,5-dimethoxy-4-hydroxycinnamoylamino)-3-octyloxy-4-hydroxy-1-methyl-2(1H)-quinolinone]",average particle diameter of the starting organic compound,[1],"1,280 nm"
same,crystallinity (X-ray diffraction),[2],crystalline structures
COc1cc(C(=O)NS(=O)(=O)c2ccccc2C)ccc1Cc1cn(C)c2ccc(NC(=O)OC3CCCC3)cc12 [zafirlukast],average particle diameter of the starting organic compound,[1],"5,347 nm"
CC1=C(/C=C/C(C)=C/C=C/C(C)=C/C=C/C=C(C)/C=C/C=C(C)/C=C/C2=C(C)CCCC2(C)C)C(C)(C)CCC1 [β-carotene],average particle diameter of the starting organic compound,[1],"1,720 nm"
